Measurements: ChEMBL document CHEMBL6109129, “Discovery of Conformationally Constrained Dihydro Benzo-Indole Derivatives as Metallo-β-Lactamase Inhibitors to Tackle Multidrug-Resistant Bacterial Infections” (J Med Chem, 2025)
In brackets after ≈: the same amount, converted by molar mass. Activity calls are given as the source filed them. The calls are words filed in the database; no cut-off is given here.

Key:
Enterobacter cloacae [1] = assay: Synergistic antibacterial activity against carbapenem-resistant Enterobacter cloacae BAA-2468 assessed as reduction in microbial growth at 16 ug/ml measured after 16 to 18 hrs in presence of meropenem by microbial dilution method; format: functional; settings: dose 16 µg/ml, time 16-18 hrs
[2] = Cytotoxicity in HEK293 cells assessed as inhibition of cell growth measured after 24 hrs by MTT assay; format: toxicity, cell-based; settings: human
[3] = tested on: Klebsiella pneumoniae subsp. pneumoniae; assay: Synergistic antibacterial activity against carbapenem-resistant Klebsiella pneumoniae subsp. pneumoniae BAA-2470 assessed as reduction in microbial growth at 8 ug/ml measured after 16 to 18 hrs in presence of meropenem by microbial dilution method; format: functional; settings: dose 8 µg/ml, time 16-18 hrs
[4] = tested on: Klebsiella pneumoniae subsp. pneumoniae; assay: Synergistic antibacterial activity against carbapenem-resistant Klebsiella pneumoniae subsp. pneumoniae BAA-2470 assessed as reduction in microbial growth at 0.5 ug/ml measured after 16 to 18 hrs in presence of meropenem by microbial dilution method; format: functional; settings: dose 0.5 µg/ml, time 16-18 hrs
Enterobacter cloacae [5] = assay: Synergistic antibacterial activity against carbapenem-resistant Enterobacter cloacae BAA-2468 assessed as reduction in microbial growth at 16 ug/ml measured after 16 to 18 hrs in presence of imipenem by microbial dilution method; format: functional; settings: dose 16 µg/ml, time 16-18 hrs
Klebsiella pneumoniae [6] = assay: Synergistic antibacterial activity against carbapenem-resistant Klebsiella pneumoniae 538961 assessed as reduction in microbial growth at 4 ug/ml measured after 16 to 18 hrs in presence of meropenem by microbial dilution method; format: functional; settings: dose 4 µg/ml, time 16-18 hrs
Escherichia coli [7] = assay: Synergistic antibacterial activity against carbapenem-resistant Escherichia coli 565988 assessed as reduction in microbial growth at 4 ug/ml measured after 16 to 18 hrs in presence of imipenem by microbial dilution method; format: functional; settings: dose 4 µg/ml, time 16-18 hrs
[8] = tested on: Klebsiella pneumoniae subsp. pneumoniae; assay: Synergistic antibacterial activity against carbapenem-resistant Klebsiella pneumoniae subsp. pneumoniae BAA-2472 assessed as reduction in microbial growth at 0.5 ug/ml measured after 16 to 18 hrs in presence of imipenem by microbial dilution method; format: functional; settings: dose 0.5 µg/ml, time 16-18 hrs
Klebsiella pneumoniae [9] = assay: Synergistic antibacterial activity against carbapenem-resistant Klebsiella pneumoniae 538961 assessed as reduction in microbial growth at 16 ug/ml measured after 16 to 18 hrs in presence of meropenem by microbial dilution method; format: functional; settings: dose 16 µg/ml, time 16-18 hrs
[10] = Metabolic stability in mouse liver microsomes assessed as parent compound remaining at 1 uM measured at 60 mins in presence of NADPH by LC-MS/MS analysis; format: ADME, Microsome; settings: read-out: Stability
Klebsiella pneumoniae [11] = assay: Synergistic antibacterial activity against carbapenem-resistant Klebsiella pneumoniae 571278 assessed as reduction in microbial growth at 16 ug/ml measured after 16 to 18 hrs in presence of imipenem by microbial dilution method; format: functional; settings: dose 16 µg/ml, time 16-18 hrs
Klebsiella pneumoniae [12] = assay: Synergistic antibacterial activity against carbapenem-resistant Klebsiella pneumoniae BAA-2473 assessed as reduction in microbial growth at 16 ug/ml measured after 16 to 18 hrs in presence of imipenem by microbial dilution method; format: functional; settings: dose 16 µg/ml, time 16-18 hrs
Klebsiella pneumoniae [13] = assay: Synergistic antibacterial activity against carbapenem-resistant Klebsiella pneumoniae 565345 assessed as reduction in microbial growth at 16 ug/ml measured after 16 to 18 hrs in presence of meropenem by microbial dilution method; format: functional; settings: dose 16 µg/ml, time 16-18 hrs
Escherichia coli [14] = assay: Synergistic antibacterial activity against carbapenem-resistant Escherichia coli 567975 assessed as reduction in microbial growth at 4 ug/ml measured after 16 to 18 hrs in presence of meropenem by microbial dilution method; format: functional; settings: dose 4 µg/ml, time 16-18 hrs
Escherichia coli [15] = assay: Synergistic antibacterial activity against carbapenem-resistant Escherichia coli BAA-2471 assessed as reduction in microbial growth at 16 ug/ml measured after 16 to 18 hrs in presence of meropenem by microbial dilution method; format: functional; settings: dose 16 µg/ml, time 16-18 hrs
Klebsiella pneumoniae [16] = assay: Synergistic antibacterial activity against carbapenem-resistant Klebsiella pneumoniae 538961 assessed as reduction in microbial growth at 16 ug/ml measured after 16 to 18 hrs in presence of imipenem by microbial dilution method; format: functional; settings: dose 16 µg/ml, time 16-18 hrs
Escherichia coli [17] = assay: Synergistic antibacterial activity against carbapenem-resistant Escherichia coli 565988 assessed as reduction in microbial growth at 16 ug/ml measured after 16 to 18 hrs in presence of meropenem by microbial dilution method; format: functional; settings: dose 16 µg/ml, time 16-18 hrs
[18] = Plasma protein binding in human assessed as unbound fraction at 10 uM measured after 5 hrs by LC-MS/MS analysis; format: ADME, cell-free
[19] = target: Metallo-beta-lactamase type 2 (Bacteria) (UniProt C7C422); assay: Induction of thermal stabilization of NDM-1 (unknown origin) assessed as increase in melting temperature by differential scanning fluorimetry analysis; settings: dose 3.12-50 µM
Sequence of Metallo-beta-lactamase type 2 (Bacteria) (C7C422 whole entry): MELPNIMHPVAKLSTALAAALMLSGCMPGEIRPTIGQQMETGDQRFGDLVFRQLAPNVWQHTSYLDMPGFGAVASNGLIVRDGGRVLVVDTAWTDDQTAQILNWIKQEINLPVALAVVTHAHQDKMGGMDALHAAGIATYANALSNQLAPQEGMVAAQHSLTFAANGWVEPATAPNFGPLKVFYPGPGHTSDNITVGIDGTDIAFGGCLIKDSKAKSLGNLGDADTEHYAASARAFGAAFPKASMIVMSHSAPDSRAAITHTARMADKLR

Klebsiella pneumoniae [20] = assay: Synergistic antibacterial activity against carbapenem-resistant Klebsiella pneumoniae 571278 assessed as reduction in microbial growth at 16 ug/ml measured after 16 to 18 hrs in presence of meropenem by microbial dilution method; format: functional; settings: dose 16 µg/ml, time 16-18 hrs
Klebsiella pneumoniae [21] = assay: Synergistic antibacterial activity against carbapenem-resistant Klebsiella pneumoniae BAA-2473 assessed as reduction in microbial growth at 0.5 ug/ml measured after 16 to 18 hrs in presence of meropenem by microbial dilution method; format: functional; settings: dose 0.5 µg/ml, time 16-18 hrs
[22] = Inhibition of VIM-1 (unknown origin) using FC5 as substrate preincubated for 10 mins followed by substrate addition and measured immediately by fluorescence based analysis; design: species or system Bacteria
[23] = Kinetic solubility of the compound in PBS buffer at pH 7.4 measured after 24 hrs by HPLC analysis; format: physicochemical; settings: read-out: Kinetic_solubility
Escherichia coli [24] = assay: Synergistic antibacterial activity against carbapenem-resistant Escherichia coli 541588 assessed as reduction in microbial growth at 16 ug/ml measured after 16 to 18 hrs in presence of imipenem by microbial dilution method; format: functional; settings: dose 16 µg/ml, time 16-18 hrs
[25] = tested on: Klebsiella pneumoniae subsp. pneumoniae; assay: Synergistic antibacterial activity against carbapenem-resistant Klebsiella pneumoniae BAA-2472 assessed as reduction in microbial growth at 16 ug/ml measured after 16 to 18 hrs in presence of meropenem by microbial dilution method; format: functional; settings: dose 16 µg/ml, time 16-18 hrs

Structure (SMILES): COc1ccc(Cl)cc1-c1c(C(=O)O)[nH]c2c1CCc1ccccc1-2
- MIC (Enterobacter cloacae [1]): 4 µg/mL
- IC50 at 24 h [2]: > 200000 nM
- MIC [3]: 8 µg/mL
- MIC [4]: 32 µg/mL
- MIC (Enterobacter cloacae [5]): 32 µg/mL
- MIC (Klebsiella pneumoniae [6]): 16 µg/mL
- MIC (Escherichia coli [7]): 1 µg/mL
- MIC [8]: 64 µg/mL
- MIC (Klebsiella pneumoniae [9]): 4 µg/mL
- remaining at 1 h, 1 µM [10]: 44.2%
- MIC (Klebsiella pneumoniae [11]): 4 µg/mL
- MIC (Klebsiella pneumoniae [12]): 8 µg/mL
- MIC (Klebsiella pneumoniae [13]): 1 µg/mL
- MIC (Escherichia coli [14]): 1 µg/mL
- MIC (Escherichia coli [15]): 16 µg/mL
- MIC (Klebsiella pneumoniae [16]): 2 µg/mL
- MIC (Escherichia coli [17]): < 0.5 µg/mL
- fraction unbound at 5 h, 10 µM [18]: 0.992
- Activity [19]: Active
- MIC (Klebsiella pneumoniae [20]): 16 µg/mL
- MIC (Klebsiella pneumoniae [21]): > 64 µg/mL
- IC50 [22]: 21 nM
- solubility kinetic at 24 h [23]: 19.7 µg/mL (≈ 55.7 µM)
- MIC (Escherichia coli [24]): 1 µg/mL
- MIC [25]: 32 µg/mL
